From patent publication US20230398125A1, “TREATING HEPATITIS” (Albireo AB, priority 2022, published 2023)
Like-named read-outs stand apart in the source and are kept apart here.

Tests used:
Mouse IBAT = biological target: T1, Mouse IBAT (Mus musculus, UniProt P70172); assay: 3H-taurocholic acid uptake in mouse IBAT-overexpressing cells; type: cell-based; conditions: 3H-taurocholic acid transport
T1 construct: expressed in transfected cells; kept under puromycin selection
T1 sequence (P70172 1-348): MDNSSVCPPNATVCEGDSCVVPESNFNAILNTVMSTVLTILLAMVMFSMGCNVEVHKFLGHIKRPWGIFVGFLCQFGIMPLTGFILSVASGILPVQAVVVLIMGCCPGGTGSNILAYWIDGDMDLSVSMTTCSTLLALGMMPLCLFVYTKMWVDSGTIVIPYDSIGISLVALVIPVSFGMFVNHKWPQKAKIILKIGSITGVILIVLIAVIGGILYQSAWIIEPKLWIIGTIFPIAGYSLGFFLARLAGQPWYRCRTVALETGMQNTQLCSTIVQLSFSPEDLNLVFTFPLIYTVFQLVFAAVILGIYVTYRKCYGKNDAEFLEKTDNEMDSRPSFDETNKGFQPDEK
Experimental: 10,000 cells (Human & Mouse IBAT-overexpressing cells) were seeded in 96-wells plate in 100 μL MEM-alpha medium supplemented with 10% FBS containing puromycin (10 μg/mL) and incubated at 37° C. in 5% CO2 for 48 hrs. After incubation media was decanted from the wells, cells were washed two times with 250 μL of basal MEM-alpha medium (FBS-free). After each wash, plates were tapped against paper towel to ensure maximum removal of residual media. Test inhibitor dilutions (highest test concentration being 10 μM, 3-fold serial dilution, 10 concentrations) prepared in DMSO were added to the incubation mix (maintaining 0.2% final DMSO concentration) containing 0.25 μM ^3H-taurocholic acid and 5 μM of cold taurocholic acid. […]
After incubation, the reaction was stopped by keeping the plates on ice water mix for 2-3 minutes and then the incubation mix was aspirated completely from the wells. […] 100 μL of MicroScint-20 was added to the wells and kept overnight at room temperature before reading the plates in MicroBeta2 liquid Scintillation Counter from PerkinElmer under ^3H Test for I/L-BAT protocol (set at 120 seconds reading time per well, with normal plate orientation).
Percentage inhibitions were calculated with respect to the assay controls. […]

ASBT = biological target: T2, ASBT (Homo sapiens, UniProt Q12908); assay: [3H]taurocholate uptake, apparent Ki for ASBT; type: cell-based; conditions: read-out: inhibitory constant (Ki) for ASBT
T2 construct: expressed in transfected cells
T2 sequence (Q12908 1-348): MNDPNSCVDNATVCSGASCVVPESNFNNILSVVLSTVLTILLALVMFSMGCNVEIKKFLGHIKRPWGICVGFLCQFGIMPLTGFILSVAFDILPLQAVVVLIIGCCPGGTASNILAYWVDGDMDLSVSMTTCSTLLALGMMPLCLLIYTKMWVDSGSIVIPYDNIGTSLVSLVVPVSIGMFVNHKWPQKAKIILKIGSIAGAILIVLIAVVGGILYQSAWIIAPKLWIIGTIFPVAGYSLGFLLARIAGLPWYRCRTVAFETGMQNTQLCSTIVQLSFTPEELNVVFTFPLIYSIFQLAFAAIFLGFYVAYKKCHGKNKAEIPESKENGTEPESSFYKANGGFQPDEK

[1] = tested on: HBV (HepG2 AD38 genotype D); assay: HBV infection of primary human hepatocytes, extracellular HBV DNA by qPCR; type: cell-based, hepatitis B virus; conditions: for EC50: Hepatitis B virus
HBV (genotype D) = assay: In vitro HBV infection of NTCP-HepG2 cells, second study (HBeAg, HBc); type: cell-based, hepatitis B virus; conditions: for IC50: Hepatitis B virus
Experimental: In a second study, recombinant HBV (genotype D) was produced in vitro as described in the literature (König et al. 2014). […] The myr-preS12-48 peptide (500 nM, genotype D) was used as control inhibitor. All infection experiments were performed in NTCP-HepG2 cells cultured in HGM in the presence of the corresponding compounds with different concentrations, 4% PEG-8000 (Sigma-Aldrich, Darmstadt, Germany), 2% DMSO (Carl Roth, Karlsruhe, Germany) and 100 ng/ml EGF (PeproTech, Hamburg, Germany) as final concentration each. Recombinant HBV was diluted in HGM to a final concentration of 2.5×10^10 HBV-genome copies per well (7×10^8 IU per well) and was added to the cells for 6 h. Subsequently, cells were washed with HGM and cultured in HGM supplemented with 2% DMSO. Medium was changed every 2-3 days until cells were fixed at day 9 p.i. with 3.8% paraformaldehyde (Sigma-Aldrich) in PBS, for 30 min at RT. The cells were immunostained at 37° C. for 1 h (1:400 dilution). For detection of HBV core (HBc) protein expression, a polyclonal anti-HBc antiserum from an immunized guinea pig (1:500 dilution, Eurogentec, Seraing, Belgium) was used as primary antibody and an Alexa Fluor 488-conjugated goat anti-guinea-pig-IgG-antibody (1:400 dilution, Thermo Fisher Scientific) as secondary antibody. Nuclei were stained with DAPI (0.5 μg/ml, Thermo Fisher Scientific). […] HBV-infected cells secrete the soluble HBeAg, which is a widely-accepted quantitative marker for productive HBV infection in cell culture experiments. In this study, HBeAg secreted from infected cells into the cell culture supernatant was determined of supernatant collected from day 5 to 9 p.i. using the Architect HBeAg assay, an automated in vitro diagnostic system (Abbott Laboratories, Wiesbaden, Germany).
Determination of IC50 values was done by nonlinear regression analysis using the equation log(inhibitor) vs. response settings of the GraphPad Prism 6.0 software (GraphPad). Data of [^3H]TC transport and [^3H]preS1 binding are expressed as means±SD from quadruplicate determinations. […]

Question: `CCCCC1CN(c2ccccc2)c2cc(SC)c(O/C=C(\F)C(=O)O)cc2S(=O)(=O)N1C` (stereo not drawn) [Compound 1, (Z)-3-((3-butyl-2-methyl-7-(methylthio)-1,1-dioxido-5-phenyl-2,3,4,5-tetrahydro-1,2,5-benzothiadiazepin-8-yl)oxy)-2-fluoroacrylic acid] was tested. Which IC50 (Mouse IBAT) did it give?
Answer: 0.0408 ± 0.0046 µM

Question: What about the Ki (ASBT) of the same molecule?
Answer: 2.41 µM

Question: And the EC50 ([1]; HepG2, 18 h, Study #01, compound given 18 h post-infection)?
Answer: > 0.001 µM

Question: And the EC50 ([1]; HepG2, Study #01, #02 and #03 merged, four parameter regression, read-out: EC50 from fitted curve of merged data)?
Answer: 0.0049 µM

Question: What about the EC50 ([1]; HepG2, Study #01, compound given 18 h prior to infection, PHH, HBV DNA, read-out: EC50) of the same molecule?
Answer: 0.004 µM

Question: And the EC50 ([1]; HepG2, Study #02, PHH, read-out: EC50)?
Answer: < 0.0063 µM

Question: And the EC50 ([1]; HepG2, Study #03, PHH, read-out: EC50)?
Answer: 0.011 µM

Question: And the “antiviral activity/potency when given 18 h post-infection” value ([1]; Study #01)?
Answer: lost

Question: What about the Max inhibition ([1]; Study #01, 18 h prior to infection) of the same molecule?
Answer: 97%

Question: And the Max inhibition ([1]; Study #02)?
Answer: 88%

Question: And the “inhibition at the lowest concentration tested” value ([1]; Study #02, 6.25 nmol/L)?
Answer: 58%

Question: What about the Max inhibition ([1]; Study #03) of the same molecule?
Answer: 63%

Question: What about the IC50 (HBV (genotype D); read-out: IC50 in vitro HBV infection (HBc)) of the same molecule?
Answer: 0.0161 µM

Question: And the IC50 (HBV (genotype D); read-out: IC50 in vitro HBV infection (HBeAg))?
Answer: 0.0191 µM

Question: What about the “HBeAg secretion relative to cut off value” (HBV (genotype D); second study, highest inhibitor concentration 1000 nM) of the same molecule?
Answer: above the cut off value
